Columns and labels:
Assay in all cases: relative viability (nuclei count vs DMSO), 5 days (fraction); higher = more cells survive
[1] = compound: C[C@@H](C(=O)N[C@@H](C1CCCCC1)C(=O)N2CCC[C@H]2C(=O)N[C@@H]3[C@@H](CC4=CC=CC=C34)OCC#CC#CCO[C@@H]5CC6=CC=CC=C6[C@@H]5NC(=O)[C@@H]7CCCN7C(=O)[C@H](C8CCCCC8)NC(=O)[C@H](C)NC)NC [AZD5582] + CC(=O)c1c(C)c2cnc(Nc3ccc(N4CCNCC4)cn3)nc2n(C2CCCC2)c1=O [Palbociclib] (partner 0.5 µM)
Method in brief: (§1)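 Relative viability equals treated-well nuclei counts divided by vehicle-well nuclei counts. Counts came from 4× images of lung cancer cell lines grown in 1536-well plates for 5 days after pin-tool dosing on the day after seeding. Dosing used one drug alone or a fixed anchor-drug dose plus five library-drug doses (not always all listed) in √10 steps, and values are medians of duplicate plates.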

[2] = compound: C[C@@H](C(=O)N[C@@H](C1CCCCC1)C(=O)N2CCC[C@H]2C(=O)N[C@@H]3[C@@H](CC4=CC=CC=C34)OCC#CC#CCO[C@@H]5CC6=CC=CC=C6[C@@H]5NC(=O)[C@@H]7CCCN7C(=O)[C@H](C8CCCCC8)NC(=O)[C@H](C)NC)NC [AZD5582] + C[C@@H](Oc1cc(-c2cnn(C3CCNCC3)c2)cnc1N)c1c(Cl)ccc(F)c1Cl [Crizotinib] (partner 1 µM)
Method in brief: as §1

[3] = compound: Cn1nnc2c(C(N)=O)ncn2c1=O [Temozolomide] + CC(C)C[C@H](NC(=O)[C@H](Cc1ccccc1)NC(=O)c1cnccn1)B(O)O [Bortezomib] (partner 0.002 µM)
Method in brief: as §1

[4] = compound: Cn1nnc2c(C(N)=O)ncn2c1=O [Temozolomide] + O=C(CCCCCCC(=O)Nc1ccccc1)NO [Vorinostat] (partner 1 µM)
Method in brief: as §1

Cell Line	relative viability ([1]; first compound 0.001581 µM)	relative viability ([1]; first compound 0.005 µM)	relative viability ([1]; first compound 0.01581 µM)	relative viability ([1]; first compound 0.05 µM)	relative viability ([2]; first compound 0.001581 µM)	relative viability ([2]; first compound 0.005 µM)	relative viability ([2]; first compound 0.01581 µM)	relative viability ([2]; first compound 0.05 µM)	relative viability ([3]; first compound 0.2 µM)	relative viability ([3]; first compound 0.6325 µM)	relative viability ([3]; first compound 2 µM)	relative viability ([3]; first compound 6.325 µM)	relative viability ([3]; first compound 20 µM)	relative viability ([4]; first compound 0.2 µM)	relative viability ([4]; first compound 0.6325 µM)	relative viability ([4]; first compound 2 µM)	relative viability ([4]; first compound 6.325 µM)	relative viability ([4]; first compound 20 µM)
SW 1573	0.352	0.451	0.402	0.407	0.686	0.717	0.815	0.858	0.949	1.12	1.05	1.19	1.18	0.794	1.04	1.08	0.803	0.633
UMC-11	0.345	0.324	0.394	0.339	0.534	0.671	0.578	0.493	0.861	0.924	0.945	0.519	0.377	0.388	0.415	0.423	0.391	0.264
